Results as given in article PMC10724293, “New ruthenium-xanthoxylin complex eliminates colorectal cancer stem cells by targeting the heat shock protein 90 chaperone” (Cell Death & Disease, 2023).

Legend:
HCT116 cells [1] = experiment: Colony-forming assay; assay type: cell-based, human; conditions: 24, 48, 72 h treatment, 14 days culture
Procedure: To test clonogenic ability, 1000 cells were seeded in 6-well plates with 6 ml of complete medium and incubated with the drug for 24, 48, and 72 h. The medium was then changed to drug-free fresh medium and cultured for a total of 14 days. The cells were then fixed in methanol and stained with 0.5% crystal violet. The number of colonies with more than 50 cells was counted using an optical microscope (Nikon, TS100).

HCT116 cells [2] = experiment: CRC experimental lung metastasis xenograft model; assay type: in vivo, C. B-17 SCID mice; conditions: 2 mg/kg i.p. every other day for 4 weeks; control 5.0 ± 0.5
Procedure: HCT116 cells (2 × 10^6 cells/100 μl) were injected into the tail vein of each mouse. The animals were then treated intraperitoneally (200 μl/animal) every other day for 4 weeks. […] The animals were euthanized with an anesthetic overdose (thiopental, 100 mg/kg) 1 day after treatment ended, and their lungs were excised and fixed in 4% formaldehyde. The number of lung macrometastases per animal was counted and processed for histological analysis.

HCT116 cells [3] = experiment: Trypan blue exclusion assay; assay type: cell-based, human; conditions: 2.5, 5 and 10 μM; 24, 48 and 72 h
Procedure: The trypan blue exclusion assay was used to quantify the number of viable cells. Briefly, 90 μl of the cell suspension plus 10 μl of trypan blue (0.4%) were mixed, and an aliquot was analyzed in a hemocytometer. The number of viable (unstained cells) and nonviable (trypan blue-stained cells) cells was counted using a light microscope.

HCT116 cells [4] = experiment: Cell cycle distribution and internucleosomal DNA fragmentation by flow cytometry; assay type: cell-based, human
Procedure: For quantification of internucleosomal DNA fragmentation and cell cycle distribution, the cells were stained with PI using a solution containing 0.1% Triton X-100, 2 µg/ml PI, 0.1% sodium citrate, and 100 µg/ml RNAse (all from Sigma-Aldrich) and incubated in the dark for 15 min at room temperature. Finally, cell fluorescence was measured using flow cytometry.
For all flow cytometry analyses, cell fluorescence was measured with a BD LSRFortessa cytometer and analyzed by BD FACSDiva Software (BD Biosciences) and FlowJo Software 10 (FlowJo LLC; Ashland, OR, USA). At least 10,000 events were evaluated per sample for intracellular staining, and at least 30,000 events were acquired per sample for cell surface protein staining. FSC-A versus FCS-H and SCC-A versus SCC-H were used to remove the doublets. The analysis excluded cellular debris.

HepG2 cells = conditions: C. B-17 SCID mice engrafted with HepG2 cells; cited from earlier work
HCT116 cells [5] = experiment: CRC tumor growth xenograft model; assay type: in vivo, C. B-17 SCID mice; conditions: 2 mg/kg i.p. once a day for 2 weeks; control 0.81 ± 0.09 g
Procedure: HCT116 cells (10^7 cells/500 μl) were inoculated subcutaneously into the left front armpit of mice, as previously reported. The animals were then treated intraperitoneally (200 μl/animal) once a day for 2 weeks. […] The animals were euthanized with an anesthetic overdose (thiopental, 100 mg/kg) 1 day after treatment ended, and tumors were excised, weighed, and processed for histological analysis. The inhibition ratio (percent) was calculated as follows: inhibition ratio (percent) = [(A − B)/A] × 100, where A is the average tumor weight of the negative control and B is the treated group.

HCT116 cells [6] = experiment: Mitochondrial transmembrane potential, rhodamine 123 flow cytometry; assay type: cell-based, human; conditions: 24 h, all concentrations tested
Procedure: To ensure mitochondrial transmembrane potential, the cells were stained with rhodamine 123 (5 µg/ml, Sigma-Aldrich Co.) at 37 °C for 15 min in the dark. The cells were then washed with saline and incubated in saline for 30 min in the dark at 37 °C, and cell fluorescence was determined using flow cytometry.

cis-[Ru(phen)2(xant)](PF6) [RXC]
clonogenic survival (HCT116 cells [1]): inhibit the clonogenic survival
mean number of pulmonary metastatic nodules (HCT116 cells [2]): 1.3 ± 0.4
number of viable cells (HCT116 cells [3]): reduced the number of viable cells
DNA fragmentation (sub-G0/G1) (HCT116 cells [4]; 2.5 μM, 48 h, control […]): 7.1%
DNA fragmentation (sub-G0/G1) (HCT116 cells [4]; 2.5 μM, 72 h, control 2.0%): 18.8%
DNA fragmentation (sub-G0/G1) (HCT116 cells [4]; 5 μM, 48 h, control […]): 9.3%
DNA fragmentation (sub-G0/G1) (HCT116 cells [4]; 5 μM, 72 h, control 2.0%): 22.4%
cell cycle effect (HCT116 cells [4]; 10 μM, 24 h): cell cycle arrest in S-phase
DNA fragmentation (sub-G0/G1) (HCT116 cells [4]; 10 μM, 48 h, control […]): 9.6%
DNA fragmentation (sub-G0/G1) (HCT116 cells [4]; 10 μM, 72 h, control 2.0%): 34.3%
tumor growth (HepG2 cells): suppressed tumor growth
mean weight of tumors (HCT116 cells [5]): 0.6 ± 0.05 g
mitochondrial transmembrane potential (HCT116 cells [6]): mitochondrial depolarization
